Source: patent publication US8030300B2, “Ligands for nicotinic acetylcholine receptors, and methods of making and using them” (priority 2003, dated 2011)
Read-outs that look alike come from different tables or passages of the source.

Columns and labels:
Experiment in all cases: biochemical
Type in all cases: binding
[1] = target: T1, α2β4 nAChR subtype (Rattus norvegicus, UniProt P12389+P12392)
T1 construct: expressed in transfected cells
Description: (§1) In order to assess the steric and hydropathic effects of the C-5 substituents of the pyridine on the binding affinity and subtype-selectivity at neuronal nicotinic acetylcholine receptors. […] The binding affinity ratios for a ligand, calculated from its affinities at an α subunit paired with either the β2 osubunit or the β4 subunit, represents a measure of the selectivity of that ligand with regard to the β subunits.

[2] = target: T2, α3β2 nAChR subtype (Rattus norvegicus, UniProt P04757+P12390)
T2 construct: expressed in transfected cells
Description: as §1

[3] = target: T3, α4β2 nAChR subtype (Rattus norvegicus, UniProt P09483+P12390)
T3 construct: expressed in transfected cells
Description: as §1

[4] = target: T4, α4β4 nAChR subtype (Rattus norvegicus, UniProt P09483+P12392)
T4 construct: expressed in transfected cells
Description: as §1

[5] = target: T5, α3β4 nAChR subtype (Rattus norvegicus, UniProt P04757+P12392)
T5 construct: expressed in transfected cells
Description: as §1

[6] = target: T6, α2β2 nAChR subtype (Rattus norvegicus, UniProt P12389+P12390)
T6 construct: expressed in transfected cells
Description: as §1

[7] = target: T7, receptors in rat forebrain (mainly α4β2) (Rattus norvegicus, UniProt P09483+P12390)
T7 construct: from tissue; host or cells: rat forebrain homogenate
Description: as §1
In Vitro Inhibition of ^3H-Epibatidin Binding
The high affinity binding site for ^3H-epibatidin is most certainly binding to the α4β2 subtype of nicotinic receptors. The identity of the low affinity site is still believed to be unknown.
Tissue preparation: Preparations may be performed at 0-4° C. unless otherwise indicated. […] The tissue suspension may then be centrifuged at 27,000×g for 10 min. The supernatant is then discarded and the pellet may then be washed three times by centrifugation at 27,000×g for 10 min in 20 mL fresh buffer, and the final pellet may be resuspended in fresh buffer (400 mL per g of original tissue) and used for binding assays.
Assay: Aliquots of 2.0 mL homogenate may be added to 0.100 mL of test solution and 0.100 mL of ^3H-epibatidin (0.3 nM, final concentration), mixed and incubated for 60 min at room temperature. […] The amount of radioactivity on the filters may be determined by conventional liquid scintillation counting. Specific binding is total binding minus non-specific binding.

[8] = Ki α2β4, Table 5, rat nAChR subtypes
[9] = Ki α3β2, Table 5, rat nAChR subtypes
[10] = Ki α4β2, Table 5, rat nAChR subtypes
[11] = Ki α4β4, Table 5, rat nAChR subtypes
[12] = Ki α3β4, Table 5, rat nAChR subtypes
[13] = Ki α2β2, Table 5, rat nAChR subtypes
[14] = Ki α4β2*, Table 5, *Rat forebrain, mainly α4β2

T1 sequence (P12389 28-511): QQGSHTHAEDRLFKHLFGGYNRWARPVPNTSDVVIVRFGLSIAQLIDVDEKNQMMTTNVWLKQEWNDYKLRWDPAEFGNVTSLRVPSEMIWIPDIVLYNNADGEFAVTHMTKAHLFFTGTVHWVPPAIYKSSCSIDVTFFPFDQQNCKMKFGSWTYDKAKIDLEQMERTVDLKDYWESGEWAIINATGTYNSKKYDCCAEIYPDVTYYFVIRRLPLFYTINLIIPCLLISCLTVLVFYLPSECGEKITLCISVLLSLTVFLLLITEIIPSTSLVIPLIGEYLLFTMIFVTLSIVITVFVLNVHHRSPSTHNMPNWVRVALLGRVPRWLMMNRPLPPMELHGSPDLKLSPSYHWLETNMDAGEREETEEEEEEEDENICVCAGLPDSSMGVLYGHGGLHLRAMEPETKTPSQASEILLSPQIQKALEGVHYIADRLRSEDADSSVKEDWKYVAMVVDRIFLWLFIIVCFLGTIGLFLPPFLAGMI
T1 sequence (P12392 21-495): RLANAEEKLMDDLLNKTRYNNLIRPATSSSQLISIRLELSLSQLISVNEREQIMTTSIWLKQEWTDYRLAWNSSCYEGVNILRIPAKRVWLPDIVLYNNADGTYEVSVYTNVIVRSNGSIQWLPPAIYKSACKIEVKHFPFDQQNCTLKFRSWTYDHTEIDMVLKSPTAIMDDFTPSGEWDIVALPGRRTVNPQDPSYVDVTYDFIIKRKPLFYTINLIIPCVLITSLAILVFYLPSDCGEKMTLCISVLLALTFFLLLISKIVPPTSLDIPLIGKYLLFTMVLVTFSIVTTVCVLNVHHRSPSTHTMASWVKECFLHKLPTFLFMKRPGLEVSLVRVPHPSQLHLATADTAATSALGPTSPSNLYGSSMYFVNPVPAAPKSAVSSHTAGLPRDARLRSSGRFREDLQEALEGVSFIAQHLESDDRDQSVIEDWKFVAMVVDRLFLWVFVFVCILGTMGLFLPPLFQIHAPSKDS
T2 sequence (P12390 25-500): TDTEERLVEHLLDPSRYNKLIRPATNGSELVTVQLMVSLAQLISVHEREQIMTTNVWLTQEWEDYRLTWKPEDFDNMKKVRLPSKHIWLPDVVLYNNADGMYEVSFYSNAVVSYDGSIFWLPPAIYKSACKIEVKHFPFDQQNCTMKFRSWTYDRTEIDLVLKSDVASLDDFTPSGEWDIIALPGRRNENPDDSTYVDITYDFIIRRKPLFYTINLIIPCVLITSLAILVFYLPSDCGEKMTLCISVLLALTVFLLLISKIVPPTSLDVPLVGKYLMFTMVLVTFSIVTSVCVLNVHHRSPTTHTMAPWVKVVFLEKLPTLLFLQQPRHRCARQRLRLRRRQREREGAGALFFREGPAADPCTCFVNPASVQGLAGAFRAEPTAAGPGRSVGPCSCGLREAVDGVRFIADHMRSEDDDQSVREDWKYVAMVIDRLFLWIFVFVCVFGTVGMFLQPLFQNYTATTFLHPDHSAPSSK
T2 sequence (P04757 26-499): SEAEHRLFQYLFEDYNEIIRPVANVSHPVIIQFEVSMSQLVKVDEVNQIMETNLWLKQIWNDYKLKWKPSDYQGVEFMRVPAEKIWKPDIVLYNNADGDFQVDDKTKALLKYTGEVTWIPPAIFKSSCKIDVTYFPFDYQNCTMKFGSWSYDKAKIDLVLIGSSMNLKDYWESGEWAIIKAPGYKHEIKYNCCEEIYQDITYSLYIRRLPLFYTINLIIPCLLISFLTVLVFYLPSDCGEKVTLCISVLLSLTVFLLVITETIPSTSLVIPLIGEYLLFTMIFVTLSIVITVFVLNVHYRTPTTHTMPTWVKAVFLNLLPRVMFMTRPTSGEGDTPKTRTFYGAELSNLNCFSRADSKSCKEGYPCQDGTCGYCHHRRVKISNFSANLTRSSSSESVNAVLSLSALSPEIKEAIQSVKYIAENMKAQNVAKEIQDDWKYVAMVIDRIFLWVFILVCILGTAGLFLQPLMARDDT
T6 sequence (P12390 25-500): as the sequence (P12390 25-500) above
T6 sequence (P12389 28-511): as the sequence (P12389 28-511) above
T3 sequence (P12390 25-500): as the sequence (P12390 25-500) above
T3 sequence (P09483 31-630): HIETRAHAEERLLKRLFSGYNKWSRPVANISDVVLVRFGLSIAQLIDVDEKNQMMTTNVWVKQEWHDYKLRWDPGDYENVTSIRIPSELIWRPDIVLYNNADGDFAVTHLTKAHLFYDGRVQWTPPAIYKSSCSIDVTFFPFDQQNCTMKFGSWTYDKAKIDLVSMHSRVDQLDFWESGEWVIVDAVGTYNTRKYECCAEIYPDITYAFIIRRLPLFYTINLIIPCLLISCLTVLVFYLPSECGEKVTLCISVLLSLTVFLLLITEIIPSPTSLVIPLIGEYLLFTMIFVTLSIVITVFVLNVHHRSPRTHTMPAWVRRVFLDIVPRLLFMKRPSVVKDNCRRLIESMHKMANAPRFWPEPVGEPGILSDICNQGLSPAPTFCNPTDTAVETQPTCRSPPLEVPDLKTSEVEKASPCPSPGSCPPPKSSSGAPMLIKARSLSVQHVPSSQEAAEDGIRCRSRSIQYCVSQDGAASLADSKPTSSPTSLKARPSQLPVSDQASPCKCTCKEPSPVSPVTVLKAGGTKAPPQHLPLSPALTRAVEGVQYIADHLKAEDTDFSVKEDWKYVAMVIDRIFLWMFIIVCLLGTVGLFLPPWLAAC
T5 sequence (P04757 26-499): as the sequence (P04757 26-499) above
T5 sequence (P12392 21-495): as the sequence (P12392 21-495) above
T7 sequence (P09483 31-630): as the sequence (P09483 31-630) above
T7 sequence (P12390 25-500): as the sequence (P12390 25-500) above
T4 sequence (P12392 21-495): as the sequence (P12392 21-495) above
T4 sequence (P09483 31-630): as the sequence (P09483 31-630) above

Compound	Ki [1, 8] [nM]	Ki [2, 9] [nM]	Ki [3, 10] [nM]	Ki [4, 11] [nM]	Ki [5, 12] [nM]	Ki [6, 13] [nM]	Ki [7, 14] [nM]	other results
COC(=O)c1nc(Cl)ccc1C1CC2CCC1N2 (stereo not drawn) [ZW-96]	28100	5510	7870	46500	10700	5410	18400	
c1cncc(OC[C@@H]2CCN2)c1 [Ligand A-85380, reference compound]	18.4	0.208	0.142	8.04	77.7	0.073	0.248	Ki ([1]; Ki α2β4, Table 6, [3H]-EB 0.099 nM, 0.091 nM, ligand 0.00197-100 μM, n = 1): 18.4 nM; Ki ([2]; Ki α3β2, Table 6, [3H]-EB 0.099 nM, 0.091 nM, ligand 0.00197-100 μM, n = 1): 0.208 nM; Ki ([3]; Ki α4β2, Table 6, [3H]-EB 0.099 nM, 0.091 nM, ligand 0.00197-100 μM, n = 1): 0.142 nM; Ki ([4]; Ki α4β4, Table 6, [3H]-EB 0.099 nM, 0.091 nM, ligand 0.00197-100 μM, n = 1): 8.04 nM; Ki ([5]; Ki α3β4, Table 6, [3H]-EB 0.099 nM, 0.091 nM, ligand 0.00197-100 μM, n = 1): 77.7 nM; Ki ([7]; Ki α4β2**, Table 6, **Forebrain mainly α4β2, [3H]-EB 0.099 nM, 0.091 nM, n = 1): 0.248 nM
CN1CCC[C@H]1COc1cncc(C#CCO)c1 [Ligand 14]								Ki ([1]; Ki α2β4, Table 1, mean of 3 (1, 2: 3 to 6) independent measurements): 1880 nM; Ki ([2]; Ki α3β2, Table 1, mean of 3 (1, 2: 3 to 6) independent measurements): 7.64 nM; Ki ([3]; Ki α4β2, Table 1, mean of 3 (1, 2: 3 to 6) independent measurements): 0.954 nM; Ki ([4]; Ki α4β4, Table 1, mean of 3 (1, 2: 3 to 6) independent measurements): 1690 nM; Ki ([5]; Ki α3β4, Table 1, mean of 3 (1, 2: 3 to 6) independent measurements): 18200 nM; Ki ([6]; Ki α2β2, Table 1, mean of 3 (1, 2: 3 to 6) independent measurements): 2.43 nM; Ki ([7]; Ki Rat forebrain, Table 1, mean of 3 (1, 2: 3 to 6) independent measurements): 3.16 nM
O[C@H]1C[C@H]2N[C@@H]1C[C@@H]2c1ccc(Cl)nc1 (relative stereo) [Ligand 6, 2-exo-(2-Chloro-5-pyridyl)-5-exo-hydroxyl-7-azabicyclo[2.2.1]heptane]	67.5	19.3		72.7	224	16.9	69	
OC1CC2CC(c3ccc(Cl)nc3)C1N2 (stereo not drawn) [Ligand 8, 2-exo-(2-Chloro-5-pyridyl)-6-exo-hydroxyl-7-azabicyclo[2.2.1]heptane]	39.7	8.88	12.6	45.6	144	6.3	22.9	
OCCCCC#Cc1cncc(OC[C@@H]2CCCN2)c1 [Ligand 27, 5-(6-Hydroxy-1-hexynyl)-3-(2(S)-pyrrolidinylmethoxy)pyridine]	835	2.69	0.665	778	16100	1.51	1.15	
OC1C2CCC(N2)C1c1ccc(Cl)nc1 (single isomer, unassigned) [Ligand 3, 2-exo-(2-Chloro-5-pyridyl)-3-endo-hydroxyl-7-azabicyclo[2.2.1]heptane]	15.3	7.31	2.92	11.2	39.1	2.49	4.79	
Hexane-1,3-N,N′-bisepibatidine [Ligand 59c]								Ki ([1]; Table 5, rat nAChR subtypes, read-out: Ki α2β4): 37.4 nM; Ki ([2]; Table 5, rat nAChR subtypes, read-out: Ki α3β2): 6.61 nM; Ki ([3]; Table 5, rat nAChR subtypes, read-out: Ki α4β2): 7.2 nM; Ki ([4]; Table 5, rat nAChR subtypes, read-out: Ki α4β4): 31.9 nM; Ki ([5]; Table 5, rat nAChR subtypes, read-out: Ki α3β4): 64.7 nM; Ki ([6]; Table 5, rat nAChR subtypes, read-out: Ki α2β2): 4.12 nM; Ki ([7]; Table 5, *Rat forebrain, mainly α4β2, read-out: Ki α4β2*): 14.2 nM
O=c1cccc2n1C[C@H]1C[C@@H]2CN(CCCN2C[C@@H]3C[C@H](C2)c2cccc(=O)n2C3)C1 [ZW-18]								Ki [1]: 3480 nM; Ki [2]: > 1000 nM; Ki [3]: 468 nM; Ki [4]: 746 nM; Ki [5]: > 10000 nM; Ki [6]: 318 nM; Ki [7]: 936 nM
C#Cc1cncc([C@@H]2CCCN2C)c1 [SIB-1508Y, reference compound]								Ki ([1]; read-out: Ki α2β4): 1140 nM; Ki ([2]; read-out: Ki α3β2): 1890 nM; Ki ([3]; read-out: Ki α4β2): 7080 nM; Ki ([4]; read-out: Ki α4β4): 3240 nM; Ki ([5]; read-out: Ki α3β4): 4430 nM; Ki ([6]; read-out: Ki α2β2): 642 nM
FCCCCC#Cc1cncc(OC[C@@H]2CCN2)c1 [Ligand 41, 5-(6-Fluoro-1-hexynyl)-3-(2(S)-azetidinylmethoxy)pyridine]	197	0.635	0.201	118	5490	0.796	0.362	
